Experiments:
HMC-3 cells [1] = test: Cell viability (MTS) assay on HMC-3 cells; type: cell-based, human; settings: HMC-3, 72 hours, 0.01-0.1 mg/mL
Description: (§1) To characterize the nanodisc formulation in the biological system in in vitro conditions, it was necessary to screen the formulation for cytotoxicity and ensure that it would not induce significant cytotoxicity to microglial (HMC-3) and neuronal (SH-SY5Y) cells. […] A cell viability (MTS) study was performed for both 1:20 and 1:4 NDs as per the manufacturer's instruction (G3582, Promega, Madison, WI, USA). Nanodiscs were introduced to these cells separately at varying TFV drug concentrations of 0.01-0.1 mg/mL and incubated for 72 hours.
(§2) Microglia and Neuroblastoma Cell Culture: Human embryonic microglial clone 3 cells (HMC-3) and human neuroblastoma cells (SH-SY5Y) were purchased from the American Type Culture Collection (ATCC) Manassas, VA, USA). The transformed cell lines retain the properties of primary cells. They represent homogeneous cell populations that can be grown indefinitely and might represent a convenient system for their functions' biochemical analysis. Cells were cultured in Eagle's Minimum Essential Medium (EMEM) (ATCC®, Manassas, VA, USA) supplemented with a fetal bovine serum to a final concentration of 10% at 37° C. in a humidified, 5% CO2 atmosphere as recommended by the supplier.
(§3) Cells were cultured in 96-well black bottom plates at 50,000 cells per well and incubated at 37° C. in a humidified, 5% CO2 atmosphere for 24 hours to allow for 70% confluence. […]

SH-SY5Y cells [2] = test: Cell viability (MTS) assay on SH-SY5Y cells; type: cell-based, human; settings: 72 hours, 0.01-0.1 mg/mL
Description: as §1, §2, §3

HMC-3 cells [3] = test: ROS production (DCF-DA) in HMC-3 cells; type: cell-based, human; settings: 0.01-0.1 mg/mL TFV
Description: (§4) As a first approach to predict the inflammatory response on neuronal cells, the ROS production of HMC-3 and SH-SY5Y cells was evaluated. HMC-3 (FIG. 12A) and SH-SY5Y cells (FIG. 12B) were treated with the different drug-to-lipid ratios of 1:20 and 1:4 at varying TFV drug concentrations (0.01-0.1 mg/mL). A negative control antioxidant (catalase) and positive control (H2O2) were used on non-treated cells. A simultaneous setup was also performed for empty NDs at varying lipid concentrations.
(§5) Reactive oxygen species of ND: Reactive oxygen species (ROS) productions in HMC-3 and SH-SY5Y cells following nanodisc treatment were detected using dichlorofluorescein diacetate assay (DCF-DA; Molecular Probes, Eugene, OR). Cells were cultured in 96-well black bottom plates at 100,000 cells per well and incubated at 37° C. in a humidified, 5% CO2 atmosphere for 24 hours to allow for 70% confluence. The following day, cell media was taken out from each well and replenished with 100 μl of PBS+1% FBS. […] A study of FD-TFV was also measured in similar conditions simultaneously. […] Following 2 hours, the first reading of cell ROS production was read in a BioTek Synergy HTH.T. multi-mode microplate reader (BioTek, Winooski, VT, USA) and then taken every hour for the following 18 hours (excitation 485 nm and emission 528 nm; BioTek). […]

SH-SY5Y cells [4] = test: ROS production (DCF-DA) in SH-SY5Y cells; type: cell-based, human; settings: 0.01-0.1 mg/mL TFV
Description: as §4, §5

[5] = In vitro sustained drug release assay of ND (equilibrium dialysis in PBS, LC-MS/MS); type: physicochemical
Description: In vitro sustained drug release assay: The nanodisc formulation's extended drug release profile was determined in phosphate buffer saline (PBS) using an equilibrium dialysis system. The released TFV from the dialysis bag into the outside environment was sampled at different time points up to 14 days and was measured by LC-MS/MS. The dialysis bag used in these experiments was selected for its pore size of 6-8 kDa MWCO. […] Simultaneously, a separate set up with the same concentration and volume of FD-TFV was used as a control. Results were expressed as the percentage of total TFV released into the system compared to the initial concentration. It was observed that 63% of FD-TFV was release within 4 hours. […] (FIG. 14).
In vitro sustained drug release assay of ND: The drug release kinetics of the nanodisc-based drug delivery was determined in PBS using equilibrium dialysis. […] TFV was monitored by LC-MS/MS using an AB Sciex (Framingham, MA) 6500+QTRAP® mass spectrometer coupled to a Shimadzu (Columbia, MD) NexeraX2 LC. […] LC-MS/MS then evaluated the supernatant. […] The limit of quantitation (LOQ) was defined as the lowest concentration at which back-calculation yielded a concentration within 20% of theoretical and above the LOD.

HMC-3 cells [6] = test: In vitro cellular uptake study in microglial cells; type: in vitro ADME, human; settings: HMC-3, 0.0625 mg/mL, monitored over 24 hours
Description: Cell uptake and characterization of extended-release from nanodisc: To evaluate the intracellular uptake of TFV in microglial cells an in vitro cellular uptake study was performed. The cellular uptake of the two formulations (1:20 ND and 1:4 ND) and FD-TFV as a control were evaluated simultaneously and the uptake and release of TFV was monitored over 24 hours. […] This small window of cellular uptake may indicate that there is a certain capacity that microglia cells can uptake TFV. […] However, the short windows of drug uptake by the microglial cells could indicate that the size and surface charge of the ND could be a contributing factor.
Cell uptake and characterization of extended-release from ND: Microglial uptake, retention, and release of 1:20 ND, 1:4 ND, and FD-TFV were determined. HMC-3 cells were cultured in 24-well at 50,000 cells per well and incubated at 37° C. in a humidified, 5% CO2 atmosphere for 24 hours to allow for 70% confluence. After 24 hours of cell growth, samples were assigned into different treatment groups of 1:20 ND, 1:4 ND, and FD-TFV and treated at 0.0625 mg/mL concentration. Following drug treatment, samples were incubated at 37° C., and cell uptake was determined every hour over 8 hours and at a 24-hour timepoint. For each sample, media was collected into microcentrifuge tubes and stored at −20° C. for later analysis. […]

[7] = mouse, in vivo, iv, 20 mg/kg
Description: PK data analysis was performed using the plasma concentrations of TFV in the mice (FIG. 17). Plasma samples were collected for up to 48 hrs and 72 hours.
An Envigo Teklad Certified Global 18% protein rodent diet, #2018C, and water were provided to the mice ad libitum. Mice were administered a single dose intravenous (iv) dose administration. The average weight of Phase A and Phase B mice were 17.3-18.6 g and 17.2-23.4 g, respectively. All procedures were per the current Association for Assessment and Accreditation of Laboratory Animal Care (AAALAC) recommendations. In vivo studies were carried out in collaboration with NIH-DAIDS Preclinical Contract Services.
During the PK study, 24 males and 24 females used for this phase were divided into two groups (Table 5). […]
TFV was detected with the mass spectrometer in positive MRM (multiple reaction monitoring) mode by following the precursor to fragment ion transitions 288.1 to 176.2 for TFV. A Phenomenex Synergi Polar-RP column (4 microns, 100×2 mm) was used for chromatography with the following conditions: Buffer A: 2% acetic acid in water, Buffer B: 0.1% acetic acid in acetonitrile, 0-2.0 min 2% B, 2.0-2.01 min gradient to 98% B, 2.01-3.5 min gradient to 98% B, and then 3.51-5 min gradient to 2% B. The concentration of drug in each timepoint sample was quantified using Analyst 1.7 software (AB Sciex).

[8] = In vitro sustained drug release assay of liposomal structure (equilibrium dialysis in PBS, NanoDrop); type: physicochemical
Description: In order to study the liposome formulation's extended drug release kinetics, a drug release study was done in PBS using an equilibrium dialysis system. […] Liposome 1 has a lipid charge density of 5%. The released TFV from the dialysis bag into the outside environment was sampled at different time points up to 14 days and was measured by a NanoDrop Microvolume Spectrophotometer. Simultaneously, a separate setup with the same concentration and volume of FD-TFV was used as a control. Results were expressed as the cumulative total of TFV released into the system compared to the initial concentration (FIG. 18). […] This downward trend may be caused by byproducts from the FD-TFV in the external environment.

ROS production compared to the control (HMC-3 cells [3]): did not induce a significant increase
ROS production compared to the control (SH-SY5Y cells [4]): did not induce a significant increase
TFV release profile (comparison) ([5]; PBS dialysis, up to 14 days): significantly faster TFV release
drug release within 4 hours ([5]; PBS, dialysis 6-8 kDa MWCO, 37° C., LC-MS/MS): 63%
time of maximum uptake (HMC-3 cells [6]): 2 h
AUCinf values (comparison with ND formulation) [7]: higher
plasma exposure higher than for ND (mean C0, AUClast and AUCinf) [7]: 2 fold
drug release of TFV within 4 hours ([8]; NanoDrop spectrophotometer): 100%
SMILES: C[C@H](Cn1cnc2c(N)ncnc21)OCP(=O)(O)O [FD-TFV, Tenofovir]
cytotoxicity compared to the control (HMC-3 cells [1]): not considered to be significantly toxic
cytotoxicity compared to the control (SH-SY5Y cells [2]): not considered to be significantly toxic
drug release (comparison with liposomes) ([8]; up to 14 days): significantly faster drug release than the liposomes

Source: patent US20230302154A1, “NANODRUGS FOR TARGETED DRUG DELIVERY AND USE THEREOF” (priority 2020, published 2023)
